Broadly, the IC50 is the concentration needed to halve the response being measured.

Where two headings read alike, the source gives them in different places.

In one test the target is T1, Human M3 receptor (Homo sapiens, UniProt P20309).
T1 construct: expressed in transfected cells
As to the kind of experiment: FLIPR Calcium 6 assay for inhibitory activity against Human M3 receptor in CHO cells. The test is classed as cell-based. Conditions: FLIPR calcium signal, antagonist mode. On the procedure: (§1) CHO cell lines stably expressing Human M2 and Human M3, respectively, were used. The effects of the compounds on the activity of the Human M2 and Human M3 receptors were determined using the FLIPR Calcium 6 Assay Kit. The effects of the test substances on Human M2 and Human M3 were studied according to changes in cell signal intensity, and the corresponding concentration-response curves were calculated.
(§2) • 1. The Human M2-CHO and Human M3-CHO cell lines were cultured in an F-12 culture medium containing 10% fetal bovine serum (AusGeneX, FBS500-S) and 0.2 mg/mL Hygromycin B (Solarbio, H8080-1g) at a culture temperature of 37 °C with 5% carbon dioxide. • 2. Cell passage: The old culture medium was removed in a biosafety cabinet, and the cells were washed once with PBS; 1 mL of 0.25% Trypsin-EDTA (Gibco, 25200-072) solution was then added; and the cells were incubated at 37 °C for about 2 min. When the cells were detached from the bottom of the dish, about 5 mL of complete culture medium pre-heated at 37 °C was added. The cell suspension was gently pipetted to separate the aggregated cells. The cell suspension was transferred to a sterile centrifuge tube and centrifuged at 1000 rpm for 5 min. • 3. In order to maintain the physiological activity of the cells, the experimental cell confluence was controlled at about 80% as observed under an inverted microscope (Olympus, CKX53).
(§3) • 1. Cell plating: Human M2-CHO and Human M3-CHO cells were digested, collected, resuspended, counted, and then seeded into a 384-well cell plate (Corning, 3764) at a density of 1.2 × 10^4 cells/25 µL /well; the cell plate was then incubated in a 5% CO2 incubator at 37 °C for about 16-20 h. • 2. On day 2, an Assay Buffer (20 mM HEPES + 1× HBSS) was prepared according to the instructions of the FLIPR Calcium 6 Assay Kit (Molecular Devices, R8191); after 20× Component A was freeze-thawed to room temperature, it was diluted to 1× loading buffer with the Assay buffer, and placed at room temperature for later use. • 3. The culture medium in the cell plate was removed, 35 µL of the 1× loading buffer described above was quickly added to each well, and the cell plate was centrifuged using a microplate low speed centrifuge and then incubated in the dark at 37 °C for 120 min. • 4. The working solutions of a positive compound and the test compounds were each prepared in a 96-well dilution plate (Biao Sen, P-0.6-BSA-96-S); 5 µL of each solution was transferred to the corresponding cell wells; and the cell plate was incubated at 37 °C for 30 min in the dark. • 5. An agonist working solution was prepared and transferred to a 384-well compound plate (Corning, 264573) at 20 µL /well. • 6. The cell plate (Corning, 3764), the 384-well compound plate (Corning, 264573), and pipette tips were placed at corresponding positions of the FLIPR instrument; 10 µL of the agonist diluted in step 5 was added to each experimental well using the FLIPR® Penta; and data were collected at the wavelength of 515-575 nm. • 7. The signal values were plotted against the compound concentrations, and based on a non-linear regression method using the GraphPad Prism software, the curves were fit, and the IC50 values were calculated.
(§4) • 1) Z′ factor = 1−3 × (SDMax+SDMin)/(AVGMax−AVGMin) [formula] • 2) CV Max = (SDMax/AVGMax) × 100% [formula] • 3) CV Min = (SDMin/AVGMin) × 100% [formula] • 4) Signal−to−noise ratio S/B = AVGMax /AVGMin [formula] • 5) The IC50 values of the compounds were calculated using the GraphPad Prism non-linear fitting formula: Y = Bottom + (Top−Bottom)/(1+10^(∧)((LogIC50−X)×HillSlope)) [formula] • 6) % inhibition rate formula: [formula] • Ratiopositive: mean value of positive control. • Ratiovehicle: mean value of negative control (0.1% DMSO).
(§5) According to the experimental method described above, the inhibitory activity of the compounds disclosed herein against Human M2 and M3 receptors was assayed with AFDX-116 as a positive control compound. Table 3. […]

The target in a further test is T2, Human M2 receptor (Homo sapiens, UniProt P08172).
T2 construct: expressed in transfected cells
T2 sequence (P08172 1-466): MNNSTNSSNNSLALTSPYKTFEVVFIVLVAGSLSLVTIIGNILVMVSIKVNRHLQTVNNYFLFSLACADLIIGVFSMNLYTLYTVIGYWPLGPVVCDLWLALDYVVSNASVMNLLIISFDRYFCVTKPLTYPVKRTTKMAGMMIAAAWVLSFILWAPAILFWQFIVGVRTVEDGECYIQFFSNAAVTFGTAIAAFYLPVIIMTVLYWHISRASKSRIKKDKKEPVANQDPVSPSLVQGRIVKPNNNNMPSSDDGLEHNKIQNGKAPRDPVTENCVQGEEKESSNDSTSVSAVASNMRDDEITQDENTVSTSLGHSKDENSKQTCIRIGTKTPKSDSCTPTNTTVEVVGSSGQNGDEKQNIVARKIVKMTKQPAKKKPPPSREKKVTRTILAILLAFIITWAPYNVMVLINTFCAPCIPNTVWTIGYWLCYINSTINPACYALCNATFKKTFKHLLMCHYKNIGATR
As to the kind of experiment: FLIPR Calcium 6 assay for inhibitory activity against Human M2 receptor in CHO cells. The test is classed as cell-based. Particulars: for M3/M2 selectivity: IC50 ratio of M3/M2. Here is the method:
as §1, §2, §3, §4, §5

The next test deals with guinea pig myopia model. As to the kind of experiment: In vivo efficacy evaluation in form-deprivation guinea pig myopia model (diopter by infrared photorefractor). Particulars: 20 µL/eye once daily; for slowing down the progression of refraction decrease: 0.5 wt% eye drops, versus negative control group. From the text: Objective: To evaluate the inhibitory effect of compound 2 on the progression of myopia (refractive error) in a guinea pig myopia model. Young guinea pigs have inherent refractive hyperopia, which gradually progresses towards emmetropization during eye development. Form deprivation accelerates the process of emmetropization. In this test, the delaying effect of compound 2 on the process of refractive emmetropization in modeled young guinea pigs was investigated.
Sample preparation: 0.5 wt% compound 2 eye drops were formulated with compound 2 and a 10 wt% aqueous sulfobutylether-beta-cyclodextrin solution.
Grouping: The guinea pigs were evenly divided into 3 groups according to the refractive value of the right eye: a negative control group, a model control group, and a compound 2 group.
Modeling: Animals other than the negative control group were modeled. A myopia model was made by suturing the eyelid of the right eye. The modeling procedure is as follows: After hair removal was performed on the right eyes of all animals, the right eyes were sutured in a U-shape to achieve form deprivation and accelerate the process of emmetropization. The guinea pigs were fed for 28 days after the first suture.
Administration: Starting from the day of suture modeling, eye drops were administered to the right eyes of the animals in each group according to settings (the samples for administration are shown in Table 4) at 20 µL /eye once daily for 28 consecutive days. Table 4. Administration and dosage design for each group
Test: Diopter was measured on day 15 and day 29 after modeling using an infrared photorefractor (ST-PR.01, Striatech).

The mark [1] stands for this setting: Human M2-CHO cells, FLIPR calcium signal, antagonist mode, read-out: M2 IC50.

T1 sequence (P20309 whole entry): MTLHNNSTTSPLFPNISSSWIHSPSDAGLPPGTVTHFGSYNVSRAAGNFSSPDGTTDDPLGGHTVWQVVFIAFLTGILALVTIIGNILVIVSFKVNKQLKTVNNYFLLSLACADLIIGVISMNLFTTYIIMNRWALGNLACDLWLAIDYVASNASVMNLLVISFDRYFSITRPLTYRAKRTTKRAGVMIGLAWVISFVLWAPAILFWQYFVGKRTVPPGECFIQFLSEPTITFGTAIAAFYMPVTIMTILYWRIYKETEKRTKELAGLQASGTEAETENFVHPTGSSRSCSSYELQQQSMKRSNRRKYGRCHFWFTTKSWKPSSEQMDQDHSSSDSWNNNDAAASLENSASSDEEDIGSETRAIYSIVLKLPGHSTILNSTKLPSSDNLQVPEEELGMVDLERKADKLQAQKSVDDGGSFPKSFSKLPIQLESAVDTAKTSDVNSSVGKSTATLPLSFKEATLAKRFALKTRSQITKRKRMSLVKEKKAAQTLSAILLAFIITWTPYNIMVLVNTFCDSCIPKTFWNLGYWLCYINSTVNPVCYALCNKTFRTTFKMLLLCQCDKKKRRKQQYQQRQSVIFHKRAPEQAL

Turning to `CCN(CCN(C)C1CC2CCCC2C1)C(=O)CCC(=O)N1c2ccccc2C(=O)Nc2cccnc21` (stereo not drawn) [Compound 12], the values for the concentration for half-maximal inhibition (IC50) at Human M3 receptor and at Human M2 receptor (setting [1]) were 184 nM and 1.82 nM, respectively. Also, the M3/M2 selectivity on Human M2 receptor was 101.
For `CCN(CCN1CCC2(CCC2)CC1)C(=O)CCC(=O)N1c2ccccc2C(=O)Nc2cccnc21` [Compound 8], in that order: 141 nM, 0.896 nM and 157.7.
For `CCN(CCN(C)C1CC2(CCCCC2)C1)C(=O)CCC(=O)N1c2ccccc2C(=O)Nc2cccnc21` [Compound 10], in that order: 1970 nM, 2.58 nM and 762.
In the same order, the values of `CCN(CCN(C)C1CC2(CCC2)C1)C(=O)CCC(=O)N1c2ccccc2C(=O)Nc2cccnc21` [Compound 9] are 881 nM, 2.98 nM and 295.7.
Regarding `O=C1Nc2cccnc2N(C(=O)CCC(=O)N2CCCCC2CN2CCC3(CCCCC3)CC2)c2ccccc21` (stereo not drawn) [Compound 14], the IC50 on Human M3 receptor was 328 nM; at Human M2 receptor (setting [1]), 0.833 nM. For the same compound, the M3/M2 selectivity at Human M2 receptor stood at 394.1.
For `CCN(CCN1CC2CC2C1)C(=O)CCC(=O)N1c2ccccc2C(=O)Nc2cccnc21` (stereo not drawn) [Compound 7], in that order: 54.1 nM, 0.714 nM and 75.87.
For `CCN(CCN(C)C1C2CCCC21)C(=O)CCC(=O)N1c2ccccc2C(=O)Nc2cccnc21` (stereo not drawn) [Compound 13], in that order: 260 nM, 5.46 nM and 47.6.
For `CCN(CCN(C)CC1CCC2(CCCCC2)CC1)C(=O)CCC(=O)N1c2ccccc2C(=O)Nc2cccnc21` [Compound 3], in that order: 6820 nM, 6.54 nM and 1041.
Regarding `CCN(CCN(C)C1CCC2(CCCC2)C1)C(=O)CCC(=O)N1c2ccccc2C(=O)Nc2cccnc21` (stereo not drawn) [Compound 11], the 50% inhibitory concentration (IC50) on Human M3 receptor worked out at 277 nM; at Human M2 receptor (setting [1]), 1.86 nM. The M3/M2 selectivity on Human M2 receptor worked out at 149.
For `CCN(CCN(C)CC12CCC(CC1)C2)C(=O)CCC(=O)N1c2ccccc2C(=O)Nc2cccnc21` [Compound 4], in that order: 132 nM, 1.49 nM and 88.6.
For `CCN(CCN1CCC2(CCCCC2)CC1)C(=O)CCC(=O)N1c2ccccc2C(=O)Nc2cccnc21` [Compound 2], the “diopter (refractive value)” value in the test with guinea pig myopia model (day 15, 0.5 wt% compound 2 eye drops, right eye, form deprivation by eyelid suture) is “increase in the positive refractive value”. Besides, the “slowing down the progression of refraction decrease” value is on record as “superior to the negative control group” with guinea pig myopia model (day 15 of administration) and “comparable to the negative control group” in the test on guinea pig myopia model (day 29 of administration). In addition, the figures for the IC50 at Human M3 receptor and on Human M2 receptor (setting [1]) were 55.9 nM and 0.733 nM, respectively. Also, on Human M2 receptor, the M3/M2 selectivity is given as 76.
Regarding `CCN(CCN(C)C1CCC2(CCCCC2)CC1)C(=O)CCC(=O)N1c2ccccc2C(=O)Nc2cccnc21` [Compound 1], the IC50 on Human M3 receptor turned out to be 611 nM; on Human M2 receptor (setting [1]), 3.23 nM. The M3/M2 selectivity on Human M2 receptor is 189.
For `CCN(CC)CC1CCCCN1CC(=O)N1c2ccccc2C(=O)Nc2cccnc21` (stereo not drawn) [AFDX-116, reference compound], in that order: 2100 nM, 166 nM and 12.
As for `CCN(CCN(C)C12CC3CC(CC(C3)C1)C2)C(=O)CCC(=O)N1c2ccccc2C(=O)Nc2cccnc21` [Compound 6], the IC50 at Human M3 receptor came out at 723 nM; on Human M2 receptor (setting [1]), 0.863 nM. Besides, the M3/M2 selectivity at Human M2 receptor amounted to 838.
Turning to `O=C1Nc2cccnc2N(C(=O)CCC(=O)N2CCCC2CN2CCC3(CCCCC3)CC2)c2ccccc21` (stereo not drawn) [Compound 15], the IC50 stood at 247 nM on Human M3 receptor and 1.14 nM at Human M2 receptor (setting [1]). Further, on Human M2 receptor, the M3/M2 selectivity came to 217.6.
As to `CCN(CCN1C2CCCC1CC2)C(=O)CCC(=O)N1c2ccccc2C(=O)Nc2cccnc21` [Compound 5], the IC50 on Human M3 receptor turned out to be 673 nM; on Human M2 receptor, 2.74 nM. Further, at Human M2 receptor, the M3/M2 selectivity is on record as 245.6.
